In patent US20120295907A1, “INSECTICIDAL COMPOUNDS” (SYNGENTA CROP PROTECTION, LLC, priority 2009, published 2012):

Assays:
Type in all cases: in vivo
Plutella xylostella = Plutella xylostella (Diamond Back Moth) artificial diet MTP test; conditions: 144 h, 200 ppm (concentration in well 18 ppm), L2 larvae, 6 days, larval mortality, growth regulation
Diabrotica balteata = Diabrotica balteata (Corn Root Worm) artificial diet MTP test; conditions: 120 h, 200 ppm (concentration in well 18 ppm), L2 larvae, 5 days, larval mortality, growth regulation
Spodoptera littoralis = Spodoptera littoralis (Egyptian Cotton Leafworm) cotton leaf disc spray test; conditions: foliar, 72 h, 200 ppm spray on cotton leaf discs, L1 larvae, mortality, feeding behavior, growth regulation 3 DAT
Heliothis virescens = Heliothis virescens (Tobacco Budworm) egg test on artificial diet; conditions: 96 h, 200 ppm (concentration in well 18 ppm), eggs 0-24 h old on artificial diet, 4 days, egg mortality, larval mortality, growth regulation
Thrips tabaci = Thrips tabaci (Onion Thrips) sunflower leaf disc spray test; conditions: foliar, 168 h, 200 ppm spray on sunflower leaf discs, population of mixed ages, 7 days, mortality

Measured: pest or weed control at 200 ppm

CCc1cc(C(F)(C(F)(F)F)C(F)(F)C(F)(F)F)cc(C)c1NC(=O)c1cccc(NC(=O)c2ccc(F)cc2)c1OC (stereo not shown) [A1, N-[2-ethyl-4-(1,2,2,3,3,3-hexafluoro-1-trifluoromethylpropyl)-6-methylphenyl]-3-(4-fluorobenzoylamino)-2-methoxybenzamide]
not listed: Thrips tabaci
≥ 80%: all other assays above

COc1c(NC(=O)c2cccc(F)c2F)cccc1C(=O)Nc1c(Cl)cc(C(F)(C(F)(F)F)C(F)(F)C(F)(F)F)cc1Br (stereo not shown) [B22]
not listed: Thrips tabaci
≥ 80%: all other assays above

COc1c(NC(=O)c2c(-c3ccccc3)noc2C)cccc1C(=O)Nc1c(Cl)cc(C(F)(C(F)(F)F)C(F)(F)C(F)(F)F)cc1Br (stereo not shown) [B46]
≥ 80%: Thrips tabaci

COc1c(NC(=O)c2ccc(-c3ccccc3)o2)cccc1C(=O)Nc1c(Cl)cc(C(F)(C(F)(F)F)C(F)(F)C(F)(F)F)cc1Br (stereo not shown) [B49]
≥ 80%: Thrips tabaci

COc1c(NC(=O)c2cnccn2)cccc1C(=O)Nc1c(Cl)cc(C(F)(C(F)(F)F)C(F)(F)C(F)(F)F)cc1Br (stereo not shown) [B56]
not listed: Thrips tabaci
≥ 80%: all other assays above

COc1c(NC(=O)c2cc([N+](=O)[O-])ccc2Cl)cccc1C(=O)Nc1c(Cl)cc(C(F)(C(F)(F)F)C(F)(F)C(F)(F)F)cc1Br (stereo not shown) [B62]
not listed: Thrips tabaci
≥ 80%: all other assays above

COc1c(NC(=O)c2cc(C)ccc2Cl)cccc1C(=O)Nc1c(Cl)cc(C(F)(C(F)(F)F)C(F)(F)C(F)(F)F)cc1Br (stereo not shown) [B72]
not listed: Thrips tabaci
≥ 80%: all other assays above

COc1c(NC(=O)c2cc(Br)ccc2Cl)cccc1C(=O)Nc1c(Cl)cc(C(F)(C(F)(F)F)C(F)(F)C(F)(F)F)cc1Br (stereo not shown) [B83]
not listed: Thrips tabaci
≥ 80%: all other assays above

COc1c(NC(=O)c2ccc(C)c(Br)c2)cccc1C(=O)Nc1c(Cl)cc(C(F)(C(F)(F)F)C(F)(F)C(F)(F)F)cc1Br (stereo not shown) [B84]
not listed: Thrips tabaci
≥ 80%: all other assays above

COc1c(NC(=O)c2cccc([N+](=O)[O-])c2Br)cccc1C(=O)Nc1c(Cl)cc(C(F)(C(F)(F)F)C(F)(F)C(F)(F)F)cc1Br (stereo not shown) [B85]
not listed: Thrips tabaci
≥ 80%: all other assays above

COc1c(NC(=O)c2cc([N+](=O)[O-])cc([N+](=O)[O-])c2C)cccc1C(=O)Nc1c(Cl)cc(C(F)(C(F)(F)F)C(F)(F)C(F)(F)F)cc1Br (stereo not shown) [B86]
not listed: Thrips tabaci
≥ 80%: all other assays above

COc1c(NC(=O)c2cc(C(F)(F)F)n(C)n2)cccc1C(=O)Nc1c(Cl)cc(C(F)(C(F)(F)F)C(F)(F)C(F)(F)F)cc1Br (stereo not shown) [B92]
≥ 80%: Thrips tabaci | Diabrotica balteata | Spodoptera littoralis

COc1c(NC(=O)c2cc(C)n(C)n2)cccc1C(=O)Nc1c(Cl)cc(C(F)(C(F)(F)F)C(F)(F)C(F)(F)F)cc1Br (stereo not shown) [B100]
not listed: Thrips tabaci
≥ 80%: all other assays above

COc1c(NC(=O)c2ccc(SC)cc2[N+](=O)[O-])cccc1C(=O)Nc1c(Cl)cc(C(F)(C(F)(F)F)C(F)(F)C(F)(F)F)cc1Br (stereo not shown) [B116]
not listed: Thrips tabaci
≥ 80%: all other assays above

COc1c(NC(=O)c2cn(C)nc2C#N)cccc1C(=O)Nc1c(Cl)cc(C(F)(C(F)(F)F)C(F)(F)C(F)(F)F)cc1Br (stereo not shown) [B117]
not listed: Thrips tabaci
≥ 80%: all other assays above

COc1c(NC(=O)c2ccc(C(F)(F)F)cc2SC)cccc1C(=O)Nc1c(Cl)cc(C(F)(C(F)(F)F)C(F)(F)C(F)(F)F)cc1Br (stereo not shown) [B125]
≥ 80%: Plutella xylostella | Diabrotica balteata | Heliothis virescens

COc1c(NC(=O)c2cnccc2C(F)(F)F)cccc1C(=O)Nc1c(Cl)cc(C(F)(C(F)(F)F)C(F)(F)C(F)(F)F)cc1Br (stereo not shown) [B126]
not listed: Thrips tabaci
≥ 80%: all other assays above

COc1c(NC(=O)c2cc([N+](=O)[O-])c(F)cc2Cl)cccc1C(=O)Nc1c(Cl)cc(C(F)(C(F)(F)F)C(F)(F)C(F)(F)F)cc1Br (stereo not shown) [B130]
not listed: Thrips tabaci
≥ 80%: all other assays above

COc1c(NC(=O)c2cn(C)nc2C(F)F)cccc1C(=O)Nc1c(Cl)cc(C(F)(C(F)(F)F)C(F)(F)C(F)(F)F)cc1Br (stereo not shown) [B131]
not listed: Thrips tabaci
≥ 80%: all other assays above

COc1c(NC(=O)c2cc(C)oc2C(F)(F)F)cccc1C(=O)Nc1c(Cl)cc(C(F)(C(F)(F)F)C(F)(F)C(F)(F)F)cc1Br (stereo not shown) [B144]
not listed: Thrips tabaci
≥ 80%: all other assays above

COc1cccc(F)c1C(=O)Nc1cccc(C(=O)Nc2c(Cl)cc(C(F)(C(F)(F)F)C(F)(F)C(F)(F)F)cc2Br)c1OC (stereo not shown) [B166]
not listed: Thrips tabaci
≥ 80%: all other assays above

COc1c(NC(=O)c2ccc([N+](=O)[O-])c(N(C)C)c2)cccc1C(=O)Nc1c(Cl)cc(C(F)(C(F)(F)F)C(F)(F)C(F)(F)F)cc1Br (stereo not shown) [B175]
not listed: Diabrotica balteata
≥ 80%: all other assays above

COc1c(NC(=O)c2ncc(Cl)cc2Cl)cccc1C(=O)Nc1c(Cl)cc(C(F)(C(F)(F)F)C(F)(F)C(F)(F)F)cc1Br (stereo not shown) [B185]
not listed: Thrips tabaci
≥ 80%: all other assays above

COc1c(NC(=O)c2cc(Cl)ccc2F)cccc1C(=O)Nc1c(Cl)cc(C(F)(C(F)(F)F)C(F)(F)F)cc1Cl [E8]
not listed: Thrips tabaci
≥ 80%: all other assays above

COc1c(NC(=O)c2ccc(F)cc2F)cccc1C(=O)Nc1c(C)cc(C(F)(C(F)(F)F)C(F)(F)C(F)(F)F)cc1C (stereo not shown) [F9]
not listed: Thrips tabaci
≥ 80%: all other assays above

COc1c(NC(=O)c2cc(Cl)ccc2F)cccc1C(=O)Nc1c(C)cc(C(F)(C(F)(F)F)C(F)(F)C(F)(F)F)cc1C (stereo not shown) [F12]
≥ 80%: Diabrotica balteata | Spodoptera littoralis | Heliothis virescens

COc1c(NC(=O)c2ccc(Cl)c(Cl)c2)cccc1C(=O)Nc1c(C)cc(C(F)(C(F)(F)F)C(F)(F)C(F)(F)F)cc1C (stereo not shown) [F17]
not listed: Thrips tabaci
≥ 80%: all other assays above

COc1c(NC(=O)c2ccc(Cl)cc2)cccc1C(=O)Nc1c(C)cc(C(F)(C(F)(F)F)C(F)(F)C(F)(F)F)cc1C (stereo not shown) [F19]
not listed: Thrips tabaci
≥ 80%: all other assays above

COc1cccc(C(=O)Nc2cccc(C(=O)Nc3c(C)cc(C(F)(C(F)(F)F)C(F)(F)C(F)(F)F)cc3C)c2OC)c1 (stereo not shown) [F22]
not listed: Thrips tabaci
≥ 80%: all other assays above

COc1c(NC(=O)c2ccc([N+](=O)[O-])c(C)c2)cccc1C(=O)Nc1c(C)cc(C(F)(C(F)(F)F)C(F)(F)C(F)(F)F)cc1C (stereo not shown) [F23]
not listed: Thrips tabaci
≥ 80%: all other assays above

COc1c(NC(=O)c2ccc(C(F)(F)F)cc2)cccc1C(=O)Nc1c(C)cc(C(F)(C(F)(F)F)C(F)(F)C(F)(F)F)cc1C (stereo not shown) [F26]
not listed: Thrips tabaci
≥ 80%: all other assays above

COCc1cc(C(F)(C(F)(F)F)C(F)(F)C(F)(F)F)cc(Cl)c1NC(=O)c1cccc(NC(=O)c2c(F)cc(F)cc2F)c1OC (stereo not shown) [H2]
≥ 80%: Plutella xylostella | Diabrotica balteata | Heliothis virescens

COCc1cc(C(F)(C(F)(F)F)C(F)(F)C(F)(F)F)cc(Br)c1NC(=O)c1cccc(NC(=O)c2ccc(C#N)cc2C)c1OC (stereo not shown) [I1]
≥ 80%: Plutella xylostella | Diabrotica balteata | Heliothis virescens

CCc1cc(C(F)(C(F)(F)F)C(F)(F)F)cc(C)c1NC(=O)c1cccc(NC(=O)c2c(F)cc(F)cc2F)c1OC [J3]
≥ 80%: Plutella xylostella | Diabrotica balteata | Heliothis virescens

CCc1cc(C(F)(C(F)(F)F)C(F)(F)F)cc(C)c1NC(=O)c1cccc(NC(=O)c2ccc(C#N)cc2C)c1OC [J4]
≥ 80%: Plutella xylostella | Diabrotica balteata | Heliothis virescens
